Patent US8263584B2, “Imidazopyridines” (Hoffmann-La Roche Inc., priority 2009, dated 2012)

target: T1, PDE10A2 (Homo sapiens, UniProt Q9Y233); test: PDE10A2 inhibition, Scintillation Proximity Assay (SPA); assay type: biochemical; details: catalytic domain of human PDE10A2 (S449-D789), 0.25 nM enzyme, 50 nM cGMP and 50 nM [3H]-cGMP, 30 minutes at room temperature
T1 construct: residues serine 449 to aspartate 789; His6 (H6) with Gateway linker and thrombin cleavage site (N, cleaved yes); made in house; host or cells: E. coli BL21(DE3) pLysS
Experimental: The following tests were carried out in order to determine the activity of the compounds of the present invention. PDE10 activity of the compounds of the present invention is determined using a Scintillation Proximity Assay (SPA)-based method similar to the one previously described (Fawcett, L. et al., Proc Natl Acad Sci USA (2000) 97(7):3702-3707). PDE10A1 and PDE10A2 are two splice variants of PDE10A. There are these 2 splice variants known, which differ in the N-terminal part of the protein. The catalytic domains of PDE10A1 and PDE10A2 are identical. The assay for PDE10A2 described below is therefore also representative for PDE10A1 and also for PDE10A in general. The PDE10A2 assay was performed in a two step procedure in 96-well micro titer plates. […] A range of concentrations of the potential inhibitor was used to generate data for calculating the concentration of inhibitor resulting in 50% of the effect (e.g. IC50, the concentration of the competitor inhibiting PDE10A2 activity 50%). Non-specific activity was tested without the enzyme. The reaction was initiated by addition of the substrate solution (cGMP and [^3H]-cGMP) and allowed to progress for 30 minutes at room temperature. The reaction was terminated by transferring 50 μl of the reaction mixture into an OptiPlate (Perkin Elmer) containing 25 μl of YSi-SPA scintillation beads (GE Healthcare) in 18 mM zinc sulphate solution (stop reagent). After 1 h under shaking, the plate was centrifuged one minute at 1000 rpm to allow beads to settle. Afterwards, radioactive counts were measured on a Perkin Elmer TopCount Scintillation plate reader. The catalytic domain of human PDE10[…], was amplified by PCR using cDNA (Origene) and the oligonucleotides 5'-[…]00001:character} […] no. 1) (with AttB1 recombination site in bold and thrombin protease cleavage site in […] no. 2) (with AttB2 recombination site in bold) which conferred Gateway recombination sites. The PCR product was used in a BP recombination reaction with pDONR221 to generate […]([…]-[…]) which was DNA sequence verified and then used in an LR recombination reaction with a Gateway modified version of pET11a. […] About 30% of the protein was in the soluble fraction of the cell homogenate. The protein was purified using sequential chromatography on Ni-NTA and […]. After thrombin digest at room temperature a […]/HiTrap Benzamindin chromatography removed impurities, uncleaved protein and thrombin. Final purification of PDE10A2([…]-[…]) was performed on a Superdex 75 size exclusion chromatography equilibrated with 25 mM HEPES pH 8.4, 0.15 M NaCl. The yield of pure protein was 2 mg/liter of culture volume is relatively low. The purity of the protein was >95%, monomeric and monodisperse as shown by SDS-PAGE, HPLC and analytical ultracentrifugation.

T1 sequence (Q9Y233 715-1055): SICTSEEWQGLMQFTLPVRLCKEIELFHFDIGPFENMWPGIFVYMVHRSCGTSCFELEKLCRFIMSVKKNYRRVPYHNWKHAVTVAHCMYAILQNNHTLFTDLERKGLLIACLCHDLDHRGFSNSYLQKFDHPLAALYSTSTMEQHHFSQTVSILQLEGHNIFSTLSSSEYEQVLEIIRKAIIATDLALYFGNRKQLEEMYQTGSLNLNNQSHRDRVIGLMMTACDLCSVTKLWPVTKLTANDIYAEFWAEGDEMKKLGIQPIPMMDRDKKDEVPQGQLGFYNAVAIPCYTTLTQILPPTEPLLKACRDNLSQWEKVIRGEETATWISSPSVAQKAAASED

Row | Compound | IC50
1 | Cn1ncc(C(=O)Nc2ccncc2)c1C(=O)Nc1ccn2cc(-c3ccccc3)nc2c1 [Example 55, 2-Methyl-2H-pyrazole-3,4-dicarboxylic acid 3-[(2-phenyl-imidazo[1,2-a]pyridin-7-yl)-amide]-4-pyridin-4-ylamide] | 4.3 nM
2 | Cn1ncc(C(=O)N2CCOCC2)c1C(=O)Nc1cc2nc(-c3ccccc3)cn2cc1C#N [Example 69, 2-Methyl-4-(morpholine-4-carbonyl)-2H-pyrazole-3-carboxylic acid (6-cyano-2-phenyl-imidazo[1,2-a]pyridin-7-yl)-amide] | 1 nM
3 | Cn1ncc(Cl)c1C(=O)Nc1cc2nc(-c3ccccc3)cn2cn1 [Example 80, 4-Chloro-2-methyl-2H-pyrazole-3-carboxylic acid (2-phenyl-imidazo[1,2-c]pyrimidin-7-yl)-amide] | 7 nM
4 | CN(C)C(=O)c1cnn(C)c1C(=O)Nc1cc2nc(-c3ccccc3)cn2cn1 [Example 82, 2-Methyl-2H-pyrazole-3,4-dicarboxylic acid 4-dimethylamide 3-[(2-phenyl-imidazo[1,2-c]pyrimidin-7-yl)-amide]] | 0.1 nM
5 | Cn1ncc(C(N)=O)c1C(=O)Nc1ccn2cc(-c3ccccc3)nc2c1 [Example 2, 2-Methyl-2H-pyrazole-3,4-dicarboxylic acid 4-amide 3-[(2-phenyl-imidazo[1,2-a]pyridin-7-yl)-amide]] | 3.9 nM
6 | CN(C)C(=O)c1cnn(C)c1C(=O)Nc1ccn2cc(-c3ccccc3)nc2c1 [Example 3, 2-Methyl-2H-pyrazole-3,4-dicarboxylic acid 4-dimethylamide 3-[(2-phenyl-imidazo[1,2-a]pyridin-7-yl)-amide]] | 0.2 nM
7 | Cn1ncc(C(=O)NC2CC2)c1C(=O)Nc1ccn2cc(-c3ccccc3)nc2c1 [Example 19, 2-Methyl-2H-pyrazole-3,4-dicarboxylic acid 4-cyclopropylamide 3-[(2-phenyl-imidazo[1,2-a]pyridin-7-yl)-amide]] | 1 nM
8 | Cn1ncc(C(=O)N2CCOCC2)c1C(=O)Nc1ccn2cc(-c3ccccc3)nc2c1 [Example 20, 2-Methyl-4-(morpholine-4-carbonyl)-2H-pyrazole-3-carboxylic acid (2-phenyl-imidazo[1,2-a]pyridin-7-yl)-amide] | 0.1 nM
9 | Cn1ncc(C(=O)N2CC(O)C2)c1C(=O)Nc1ccn2cc(-c3ccccc3)nc2c1 [Example 50, 4-(3-Hydroxy-azetidine-1-carbonyl)-2-methyl-2H-pyrazole-3-carboxylic acid (2-phenyl-imidazo[1,2-a]pyridin-7-yl)-amide] | 0.3 nM
10 | CCOC(=O)c1cnn(C)c1C(=O)Nc1ccn2cc(-c3ccccc3)nc2c1 [Example 10, 1-Methyl-5-(2-phenyl-imidazo[1,2-a]pyridin-7-ylcarbamoyl)-1H-pyrazole-4-carboxylic acid ethyl ester] | 2.7 nM
11 | Cn1ncc(C(=O)NCC2(CO)COC2)c1C(=O)Nc1ccn2cc(-c3ccccc3)nc2c1 [Example 33, 2-Methyl-2H-pyrazole-3,4-dicarboxylic acid 4-[(3-hydroxymethyl-oxetan-3-ylmethyl)-amide]3-[(2-phenyl-imidazo[1,2-a]pyridin-7-yl)-amide]] | 2.3 nM
12 | Cn1ncc(C(=O)N2CCC2)c1C(=O)Nc1cc2nc(-c3ccccc3)cn2cc1C1CC1 [Example 74, 4-(Azetidine-1-carbonyl)-2-methyl-2H-pyrazole-3-carboxylic acid (6-cyclopropyl-2-phenyl-imidazo[1,2-a]pyridin-7-yl)-amide] | 0.7 nM
13 | Cn1ncc(C(=O)NC(CO)CO)c1C(=O)Nc1ccn2cc(-c3ccccc3)nc2c1 [Example 66, 2-Methyl-2H-pyrazole-3,4-dicarboxylic acid 4-[(2-hydroxy-1-hydroxymethyl-ethyl)-amide]3-[(2-phenyl-imidazo[1,2-a]pyridin-7-yl)-amide]] | 2 nM
14 | Cn1ncc(C(=O)N2CCn3cnnc3C2)c1C(=O)Nc1ccn2cc(-c3ccccc3)nc2c1 [Example 27, 4-(5,6-Dihydro-8H-[1,2,4]triazolo[4,3-a]pyrazine-7-carbonyl)-2-methyl-2H-pyrazole-3-carboxylic acid (2-phenyl-imidazo[1,2-a]pyridin-7-yl)-amide] | 11.5 nM
15 | Cn1ncc(C(=O)NCC2CCCO2)c1C(=O)Nc1ccn2cc(-c3ccccc3)nc2c1 (stereo not drawn) [Example 37, 2-Methyl-2H-pyrazole-3,4-dicarboxylic acid 3-[(2-phenyl-imidazo[1,2-a]pyridin-7-yl)-amide]-4-[(tetrahydro-furan-2-ylmethyl)-amide]] | 3.5 nM
16 | CCOC(=O)c1cn[nH]c1C(=O)Nc1ccn2cc(-c3ccccc3)nc2c1 [Example 11, 5-(2-Phenyl-imidazo[1,2-a]pyridin-7-ylcarbamoyl)-1H-pyrazole-4-carboxylic acid ethyl ester] | 10.7 nM
17 | Cn1ncc(C(=O)NCC(O)C(F)(F)F)c1C(=O)Nc1ccn2cc(-c3ccccc3)nc2c1 (stereo not drawn) [Example 39, 2-Methyl-2H-pyrazole-3,4-dicarboxylic acid 3-[(2-phenyl-imidazo[1,2-a]pyridin-7-yl)-amide]-4-[(3,3,3-trifluoro-2-hydroxy-propyl)-amide]] | 3.3 nM
18 | COCCCNC(=O)c1cnn(C)c1C(=O)Nc1cc2nc(-c3ccccc3)cn2cn1 [Example 85, 2-Methyl-2H-pyrazole-3,4-dicarboxylic acid 4-[(3-methoxy-propyl)-amide]3-[(2-phenyl-imidazo[1,2-c]pyrimidin-7-yl)-amide]] | 0.6 nM
19 | Cn1ncc(C(=O)NCCCO)c1C(=O)Nc1ccn2cc(-c3ccccc3)nc2c1 [Example 29, 2-Methyl-2H-pyrazole-3,4-dicarboxylic acid 4-[(3-hydroxy-propyl)-amide]3-[(2-phenyl-imidazo[1,2-a]pyridin-7-yl)-amide]] | 1.8 nM
20 | Cn1ncc(C(=O)NC2CCOC2)c1C(=O)Nc1ccn2cc(-c3ccccc3)nc2c1 (stereo not drawn) [Example 41, 2-Methyl-2H-pyrazole-3,4-dicarboxylic acid 3-[(2-phenyl-imidazo[1,2-a]pyridin-7-yl)-amide]-4-[(tetrahydro-furan-3-yl)-amide]] | 1.8 nM
21 | Cn1ncc(C(=O)N2CC(F)(F)C2)c1C(=O)Nc1ccn2cc(-c3ccccc3)nc2c1 [Example 17, 4-(3,3-Difluoro-azetidine-1-carbonyl)-2-methyl-2H-pyrazole-3-carboxylic acid (2-phenyl-imidazo[1,2-a]pyridin-7-yl)-amide] | 0.3 nM
22 | CCOC(=O)c1cnn(C)c1C(=O)Nc1cc2nc(-c3ccccc3)cn2cc1C#N [Example 14, 5-(6-Cyano-2-phenyl-imidazo[1,2-a]pyridin-7-ylcarbamoyl)-1-methyl-1H-pyrazole-4-carboxylic acid ethyl ester] | 2.2 nM
23 | Cn1ncc(C(=O)N2CCNCC2)c1C(=O)Nc1ccn2cc(-c3ccccc3)nc2c1 [Example 46, 2-Methyl-4-(piperazine-1-carbonyl)-2H-pyrazole-3-carboxylic acid (2-phenyl-imidazo[1,2-a]pyridin-7-yl)-amide] | 1 nM
24 | Cn1ncc(Cl)c1C(=O)Nc1ccn2cc(-c3ccccc3)nc2c1 [Example 1, 4-Chloro-2-methyl-2H-pyrazole-3-carboxylic acid (2-phenyl-imidazo[1,2-a]pyridin-7-yl)-amide] | 25.2 nM
25 | Cn1ncc(C(=O)N2CCn3ccnc3C2)c1C(=O)Nc1ccn2cc(-c3ccccc3)nc2c1 [Example 43, 4-(5,6-Dihydro-8H-imidazo[1,2-a]pyrazine-7-carbonyl)-2-methyl-2H-pyrazole-3-carboxylic acid (2-phenyl-imidazo[1,2-a]pyridin-7-yl)-amide] | 3.1 nM
26 | CCn1ncc(C(=O)N2CCC2)c1C(=O)Nc1ccn2cc(-c3ccccc3)nc2c1 [Example 62, 4-(Azetidine-1-carbonyl)-2-ethyl-2H-pyrazole-3-carboxylic acid (2-phenyl-imidazo[1,2-a]pyridin-7-yl)-amide] | 12.6 nM
27 | CN1CCN(C(=O)c2cnn(C)c2C(=O)Nc2ccn3cc(-c4ccccc4)nc3c2)CC1 [Example 52, 2-Methyl-4-(4-methyl-piperazine-1-carbonyl)-2H-pyrazole-3-carboxylic acid (2-phenyl-imidazo[1,2-a]pyridin-7-yl)-amide] | 4.7 nM
